Measured values: US10544134B2, “4-substituted coumarin derivatives and preparation methods and uses thereof” (SI CHUAN UNIVERSITY, priority 2015, dated 2020)
Like-named read-outs stand apart in the source and are kept apart here. Marks after values point to notes of the source that are not given here. Blank lines part the entries; values can stand above or below the compound they belong to.

Key:
HCT-8/V = experiment: Tumor cell proliferation inhibitory activity test in vitro (MTT); type: cell-based; settings: Homo sapiens, drug-resistant cells, 72 hours
breast cancer cell MCF-7 = experiment: as above; type: cell-based
From the text: (§1) Human non-small cell lung cancer cell line NCI-H460, human small cell lung cancer cell line NCI-H446, human hepatocellular carcinoma cell strain HepG2, human colon carcinoma cell strain HCT116, human prostate cancer PC-3, human melanoma A375, colon carcinoma cell HCT-8, breast cancer cell MCF-7, ovarian cancer cell A2780s, drug-resistant ovarian cancer cell A2780/T, drug-resistant colon cancer cell HCT-8/T and doxorubicin-resistant breast cancer cell MCF-7/ADR are obtained from American Type Culture Collection (ATCC) and are cultured and preserved by the cell bank of State Key Laboratory of Biotherapy of Sichuan University. Above tumor cells are routinely cultured in DMEM culture medium containing 10% fetal bovine serum, 100 U·mL-1 penicillin and 100 mg·L−1 streptomycin, and in an incubator at 37° C. and with saturated humidity and 5% CO2 concentration.
(§2) Fill diluted cell suspension in the 96-well plate with 1000-10000 cells per well and incubate it in CO2 incubator overnight.
(§3) Replace with new medium containing various concentrations of compounds to be tested for the test group and replace with fresh medium with equal volume for the control group, each group is arranged with 5 parallel wells and incubated in an incubator at 37° C. and with 5% CO2 concentration.
(§4) Discard the supernatant after 72 hours, add 200 μL freshly prepared serum-free medium containing 0.2 mg/mL MTT into each well, continue to incubate at 37° C. for 1-4 hours, then stop incubation, carefully remove the culture supernatant in the wells and add 200 uL DMSO (dimethyl sulfoxide), oscillate with a miniature ultrasonic oscillator for 15-20 minutes to make the crystal fully dissolved and mixed. Determine OD values using a microplate reader at 570 nm with a reference wavelength of 450 nm.
(§5) Draw curves based on the growth inhibition rate for tumor cells of the same sample with different concentrations to get dose-response curve, so as to calculate IC50. Repeat each test for 3 times, measure IC50 (μM) or nanomolor concentration (nM) of compounds in different tumor cells.

[1] = system: ovarian cancer cell A2780s; experiment: as above; type: cell-based; settings: Homo sapiens, sensitive cells, 72 hours
From the text: as §1, §2, §3, §4, §5

[2] = system: doxorubicin-resistant breast cancer cell MCF-7/ADR; experiment: as above; type: cell-based; settings: Homo sapiens, NCI/ADR-RES, drug-resistant cells, 72 hours
From the text: as §1, §2, §3, §4, §5

[3] = system: drug-resistant ovarian cancer cell A2780/T; experiment: as above; type: cell-based; settings: Homo sapiens, drug-resistant cells, 72 hours
From the text: as §1, §2, §3, §4, §5

[4] = system: colon carcinoma cell HCT-8; experiment: as above; type: cell-based; settings: Homo sapiens, sensitive cells, 72 hours
From the text: as §1, §2, §3, §4, §5

tumor = settings: cited from earlier work
[5] = system: human ovarian cancer cell A2780S; experiment: Pharmacodynamics in tumor-bearing nude mice, A2780S model; type: in vivo, mouse
From the text: (§6) Test condition: animal house of SPF level, use permit No. of experiment animals: SYXK (J) 2015-0023
(§7) Weigh the mouse and measure length and width of tumor using a vernier caliper in every two days, perform cervical dislocation for the nude mice after 20 days of drug administration, remove the tumor tissues, weigh and take a picture. Calculate tumor inhibition rate (%) eventually to evaluate anti-tumor effects.

[6] = system: taxol-resistant ovarian cancer cell A2780/Taxol; experiment: Pharmacodynamics in tumor-bearing nude mice, A2780/Taxol model; type: in vivo, mouse
From the text: as §6, §7

melanoma A375 = experiment: Tumor cell proliferation inhibitory activity test in vitro (MTT); type: cell-based, human; settings: read-out: IC50 of compounds for tumor cells, Activity, A375
From the text: as §1, §2, §3, §4, §5

prostate cancer PC-3 = experiment: as above; type: cell-based, human; settings: 72 hours, read-out: IC50 of compounds for tumor cells, Activity, PC-3
From the text: as §1, §2, §3, §4, §5

[7] = system: non-small cell lung cancer cell line NCI-H460; experiment: as above; type: cell-based, human; settings: read-out: IC50 of compounds for tumor cells, Activity, H460
From the text: as §1, §2, §3, §4, §5

[8] = system: colon carcinoma cell HCT116; experiment: as above; type: cell-based, human; settings: read-out: IC50 of compounds for tumor cells, Activity, HCT116
From the text: as §1, §2, §3, §4, §5

[9] = system: hepatocellular carcinoma cell HEPG2; experiment: as above; type: cell-based, human; settings: read-out: IC50 of compounds for tumor cells, Activity, HEPG2
From the text: as §1, §2, §3, §4, §5

plural tumor cells = settings: cited from earlier work
[10] = system: mouse colon carcinoma C26; experiment: Pharmacodynamics in tumor-bearing mice, colon carcinoma C26 model
Method: Collect tumor cells under aseptic conditions, adjust cell density to 5×10^7 cells/mL with sterilized physiological saline, subcutaneously inoculate 0.2 mL into armpit and back of nude mice, remove the tumor when it grew to 1 cm diameter under aseptic conditions, slice it into 1 mm×1 mm tumor blocks and evenly and subcutaneously inoculate it into armpit and back of nude mice for subculture. Remove the tumor under aseptic conditions after 2 subcultures and when it grew to 1 cm diameter, slice it into 1 mm×1 mm tumor blocks and evenly and subcutaneously inoculate it into armpit and back of nude mice. Conduct random grouping of animals after 7 days when the tumor grew to 100-300 mm^3 and perform tail intravenous injection (i.v.) once per two days, with dosages and administration methods shown in Table 3 and Table 4.
(1) Tumor volume (TV), relative tumor volume (RTV) and relative tumor proliferation rate: measure long diameter and short diameter of tumor in every two days using a vernier caliper or ruler with 1/50 mm precision and dynamically observe anti-tumor effects of tested drugs.
Formula for calculating tumor volume (TV) is: TV (mm3)=a×b^2×π/6; wherein a and b stand for long diameter and short diameter respectively.
Calculate relative tumor volume (RTV) based on the measured results with formula: RTV=Vt/V0, wherein V0 stands for the measured TV of each group at the time of being grouped for administration (i.e. d0) and Vt stands for the TV value of each group for every measurement.
The indicator used to evaluate anti-tumor activity is the relative tumor proliferation rate T/C (%), with the calculating formula as following:
TRTV: relative tumor volume of treated group; CRTV: relative tumor volume of negative control group.
Kill the animal at the end of treatment, dissect and remove the tumor, weigh the tumor and take a picture. The tumor inhibition rate (%) is calculated as the following formula:

[11] = system: human umbilical vein endothelial cells (HUVECs); experiment: Wound healing test on HUVECs; type: cell-based; settings: 24 h of cells migration
Method: (§8) Obtain neonate umbilical cords from clinical sources after being approved by relevant authorities, put them into sterile PBS solution, provide ice bags at the external to keep them under low temperature, and return to the clean bench to operate. Insert a blunt needle into the human umbilical vein and wash with sterile PBS solution for multiple times until cleaning up the tainted blood. Clamp the lower end of the cord with surgical clamps, add collagenase with 1 mg/mL concentration (purchased from Roche) for digestion for 15 to 20 minutes at room temperature and shake the cord up and down at intervals. After digestion, open the surgical clamp at the lower end, let the digestive solution flow into a 50 mL centrifuge tube and wash the cord for 2-3 times with sterile PBS solution. Centrifuge the collected solution for 3 minutes at 1500 rpm. Discard the supernatant, resuspend cells with EBM-2 medium (purchased from lonza) containing various growth factors and incubate them in an incubator at constant temperature of 37° C. with 5% CO2 concentration.
Collect HUVECs between the 3rd to 7th subculture generations and plate them in the 6-well plate. When the cells were about to form a confluent monolayer of cells, change the medium into a serum-free medium to starve the cells for 6 h. […]

[12] = system: human umbilical vein endothelial cells (HUVECs); experiment: Angiogenesis test on HUVECs; type: cell-based; settings: Matrigel, 8 h treatment
Method: as §8
Place Matrigel (purchased from Becton Dickinson (BD)) at 4° C. and make it in liquid state; precool the pipette tip, 96-well plate and EP tube to be used in the test.
Add Matrigel into the 96-well plate at 50 μL/well and incubate it in an incubator at 37° C. with CO2 concentration for 45 min to make it solidify. […]

[13] = system: microtubule in hepatocellular carcinoma cell HepG2; experiment: Depolymerization on microtubule by immunofluorescence technique; type: cell-based, human; settings: HepG2, 16 h, three concentrations
From the text: Place round coverslips into 6-well plate, plate hepatocellular carcinoma cell HepG2 in the 6-well plate and make the cells adhere to the round coverslips.

[14] = cells marked (μM), read-out: IC50 HCT-8/V
[15] = Homo sapiens, MCF7, sensitive cells, 72 hours, read-out: IC50/nM MCF-7
[16] = cells marked (μM), read-out: IC50 MCF-7/ADR
[17] = A2780s model, 30 mg/kg intraperitoneal once/seven days
[18] = A2780/T model, 30 mg/kg intraperitoneal once/seven days
[19] = Homo sapiens, MCF7, 72 hours, read-out: IC50 of compounds for tumor cells, Activity, MCF-7
[20] = Homo sapiens, NCI-H460, 72 hours
[21] = Homo sapiens, HCT-116, 72 hours
[22] = subcutaneously transplanted mouse colon carcinoma C26, 5 mg/kg i.v. once/two days
[23] = 72 hours, read-out: IC50 of compounds for tumor cells, Activity, MCF-7

IC50 (HCT-8/V; [14]): 0.023 ± 0.004 µM
IC50 (breast cancer cell MCF-7; [15]): 54.7 nM
IC50 [1]: 22.4 ± 2.68 nM
IC50 [2, 16]: 5.85 ± 1.39 µM
IC50 [3]: 476 ± 76.1 nM
IC50 [4]: 14.8 ± 3.15 nM
Compound: CC[C@]1(O)C[C@H]2CN(CCc3c([nH]c4ccccc34)[C@@](C(=O)OC)(c3cc4c(cc3OC)N(C=O)[C@H]3[C@@](O)(C(=O)OC)[C@H](OC(C)=O)[C@]5(CC)C=CCN6CC[C@]43[C@@H]65)C2)C1 [Vincristin, vincristin]

Compound: COc1ccc2c(-c3ccc(OC)c(O)c3)cc(=O)oc2c1 [compound C]
IC50 value, anti-tumor activity (tumor): dozens of nanomolar

Compound: CC(=O)O[C@H]1C(=O)[C@@]2(C)[C@H]([C@H](OC(=O)c3ccccc3)[C@]3(O)C[C@H](OC(=O)[C@H](O)[C@@H](NC(=O)c4ccccc4)c4ccccc4)C(C)=C1C3(C)C)[C@]1(OC(C)=O)CO[C@@H]1C[C@@H]2O [Taxol]
IC50 (HCT-8/V; [14]): 0.189 ± 0.052 µM
IC50 (breast cancer cell MCF-7; [15]): 32.3 ± 19.5 nM
IC50 [1]: 58.1 ± 24.1 nM
IC50 [2, 16]: 9.15 µM
IC50 [3]: 8120 ± 185 nM
IC50 [4]: 37 ± 23.9 nM
Death rate [5, 17]: 0/6
Mouse weight (g) Final [5, 17]: 18.2 ± 0.4 g
Mouse weight (g) Initial [5, 17]: 21.0 ± 0.7 g
T/C (%) [5, 17]: 13.1%
Tumor volume (mm^3) Final [5, 17]: 184.8 ± 26.6 ^c mm^3
Tumor volume (mm^3) Initial [5, 17]: 138.1 ± 25.6 mm^3
Tumor weight (g) X ± SD [5, 17]: 0.28 ± 0.07 ^c g
Tumor weight Inhibition rate % [5, 17]: 82.9%
Weight drop in average ([5]; mouse, in vivo): about 2 g
Death rate [6, 18]: 0/6
T/C (%) [6, 18]: 75.4%
Tumor volume (mm^3) Final [6, 18]: 936.4 ± 347.9^ mm^3
Tumor volume (mm^3) Initial [6, 18]: 155.6 ± 20.6 mm^3
Tumor weight (g) X ± SD [6, 18]: 0.79 ± 0.41 ^ g
Tumor weight Inhibition rate % [6, 18]: 37.7%
Mouse weight (g) Final ([6]; mouse, in vivo, ip, 30 mg/kg): 19.4 ± 1.0 g
Mouse weight (g) Initial ([6]; mouse, in vivo, ip, 30 mg/kg): 20.3 ± 0.8 g

IC50 (breast cancer cell MCF-7; [19]): 0.01 to 10 nM
IC50 [1]: 1.68 ± 0.075 nM
IC50 [3]: 3.34 ± 0.101 nM
IC50 (melanoma A375; Homo sapiens, A-375, 72 hours): 0.01 to 10 nM
IC50 (prostate cancer PC-3; Homo sapiens): 0.01 to 10 nM
IC50 [7, 20]: 0.01 to 10 nM
IC50 [8, 21]: 0.01 to 10 nM
IC50 ([9]; Homo sapiens, HepG2, 72 hours): 0.01 to 10 nM
Compound: COc1ccc(N(C)c2cc(=O)oc3ccccc23)cc1OC(=O)C1CCCC1 [COUM-73, 4-(N-methyl-N-(4-methoxy-3-(cyclopentyl-carbonyloxy)benzene)-amino) Coumarin]

Compound: COc1ccc(N(C)c2nc(C)nc3ccccc23)cc1 [MPC-6827]
IC50 (HCT-8/V; read-out: IC50/nM HCT-8/V): 0.00375 ± 0.000131 µM
IC50 (plural tumor cells): 1 to 10 nM
IC50 (breast cancer cell MCF-7; [19]): 0.01 to 10 nM
IC50 (breast cancer cell MCF-7; [15]): 0.581 ± 0.004 nM
IC50 [1]: 3.16 ± 0.034 nM
IC50 ([2]; read-out: IC50/nM MCF-7/ADR): 0.000699 ± 5.3e-05 µM
IC50 [3]: 4.11 ± 0.062 nM
IC50 [4]: 3.12 ± 0.066 nM
IC50 (melanoma A375; Homo sapiens, A-375, 72 hours): 0.01 to 10 nM
IC50 (prostate cancer PC-3; Homo sapiens): 0.01 to 10 nM
IC50 [7, 20]: 0.01 to 10 nM
IC50 [8, 21]: 0.01 to 10 nM
IC50 ([9]; Homo sapiens, HepG2, 72 hours): 0.01 to 10 nM
Mouse weight during the treatment ([10]; colon carcinoma C26 model, 5 mg/kg i.v. once/two days): significant drops in weight and even died
Average tumor weight [10, 22]: 0.525 g
Tumor inhibition rate (%) [10, 22]: 78.66%
Inhibition of migration of HUVECs [11]: inhibit migration of HUVECs in a dose-dependent manner
Inhibition of angiogenesis of HUVECs [12]: inhibit angiogenesis of HUVECs in a dose-dependent manner
Inhibition of polymerization of microtubule (immunofluorescence observation) [13]: fails to form orderly filamentous structures due to inhibited polymerization

IC50 (breast cancer cell MCF-7; [23]): > 5000 nM
IC50 (melanoma A375; 72 hours): > 5000 nM
IC50 (prostate cancer PC-3): > 5000 nM
IC50 ([7]; 72 hours): > 5000 nM
IC50 ([8]; 72 hours): > 5000 nM
IC50 ([9]; 72 hours): > 5000 nM
Compound: COc1ccc(N(C)c2cc(=O)oc3ccccc23)cc1OCCN1CCCCC1 [COUM-51, 4-(N-methyl-N-(4-methoxy-3-(2-piperidinoethoxy)-benzene)-amino) Coumarin]

Compound: 4-(N-methyl-N-(4-methoxy-3-(2-pyrrole ethoxy)-benzene)-amino) Coumarin [COUM-52]
IC50 (breast cancer cell MCF-7; [23]): 100 to 5000 nM
IC50 (melanoma A375; 72 hours): 100 to 5000 nM
IC50 (prostate cancer PC-3): 100 to 5000 nM
IC50 ([7]; 72 hours): 100 to 5000 nM
IC50 ([8]; 72 hours): 100 to 5000 nM
IC50 ([9]; 72 hours): 100 to 5000 nM
